Blank lines part the entries; values can stand above or below the molecule they belong to.
Assays:
Type in all cases: biochemical
[1] = molecular target: T1, autotaxin (ATX, NPP-2, lysophospholipase D) (Homo sapiens, UniProt Q13822); experiment: LPLD activity (choline release from LPC), […] compound, about […] reduction; set-up: gene ENPP2; recombinant human ATX (vATX); details: read-out: % reduction at 15 mM
[2] = molecular target: T1, autotaxin (ATX, NPP-2, lysophospholipase D); experiment: LPLD activity (choline release from LPC) and PDE activity (pNp-TMP) with purified recombinant ATX; set-up: gene ENPP2; recombinant human ATX (vATX), cloned from an MDA-MB-435 cell library
[3] = molecular target: T1, autotaxin (ATX, NPP-2, lysophospholipase D); experiment: LPLD activity (choline release from LPC), […] compound, […] reduction; methyl on the alpha nitrogen; set-up: gene ENPP2; recombinant human ATX (vATX); details: read-out: % reduction at 15 mM
[4] = molecular target: T1, autotaxin (ATX, NPP-2, lysophospholipase D); experiment: LPLD activity (choline release from LPC), […] compound, about […] reduction; set-up: gene ENPP2; recombinant human ATX (vATX); details: read-out: % reduction at 15 mM; remark: listed apart in the source
[5] = molecular target: T1, autotaxin (ATX, NPP-2, lysophospholipase D); experiment: LPLD activity (choline release from LPC), […] compound, […] reduction; set-up: gene ENPP2; recombinant human ATX (vATX); details: read-out: % reduction at 15 mM
[6] = molecular target: T1, autotaxin (ATX, NPP-2, lysophospholipase D); experiment: LPLD enzyme kinetics (choline release), Km; set-up: gene ENPP2; recombinant human ATX (vATX)

Molecule: N[C@@H](Cc1c[nH]cn1)C(=O)O [L-histidine]
- IC50 [2]: 4 ± 1.1 mM

Molecule: NC(=O)[C@@H](N)Cc1c[nH]cn1 [histidinamide]
- inhibition at 15000 µM [4]: ~20%

Molecule: COC(=O)[C@@H](N)Cc1c[nH]cn1 [histidine methyl ester]
- inhibition at 15000 µM [5]: 65%

Molecule: LPC (18:1)
- Km [6]: 490 ± 50 µM

The next lines start with the values.

- inhibition at 15000 µM [1]: ~75%
Molecule: N[C@H](Cc1c[nH]cn1)C(=O)O [D-histidine]

- inhibition at 15000 µM [3]: 30%
Molecule: CN[C@@H](Cc1c[nH]cn1)C(=O)O [N-methyl histidine]

Reference: publication PMC554093, “L-histidine inhibits production of lysophosphatidic acid by the tumor-associated cytokine, autotaxin” (Lipids in Health and Disease, 2005)
